Patent US20060252798A1, “Metal ion chelators and therapeutic use thereof” (priority 2003, published 2006)
Several values for one entry are separate records, joined by “and”; a condition that tells them apart may be missing. Equal entries are not always repeated. Where two headings read alike, the source gives them in different places.

Tests used:
[1] = system: SK-N-MC neuroepithelioma cells; assay: 3H-thymidine incorporation by SK-N-MC cells; type: cell-based, human; conditions: 20 h incubation then 2 h label; Mean ± SD, 4 experiments
Procedure: (§1) After a 20 h incubation of the SK-N-MC cells with a selection of analogues, ^3H-thymidine, ^3H-leucine, or ^3H-uridine (1 μCi/ml) was added for 2 h at 37° C. The cells were detached from the 96 well plate using 1 mM EDTA in Ca(II)/Mg(II)-free PBS and collected and washed using a cell harvester (Tomtec Harvester 96, Linbrook, Queensland, Australia). Radioactivity was measured on a P-scintillation counter (LKB Wallace, Turku, Finland).

[2] = system: SK-N-MC neuroepithelioma cells; assay: 59Fe mobilization from prelabelled SK-N-MC neuroepithelioma cells; type: cell-based, human
Procedure: The effect of chelators on ^59Fe release from prelabelled cells was studied using standard procedures.^18 Cells were prelabelled with ^59Fe-transferrin (0.75 μM) for 3 h at 37° C. […] The overlying medium was then removed and placed into γ-counting tubes. The cells were removed from the petri dishes in 1 ml of BSS using a plastic spatula and transferred to a separate set of γ-counting tubes.
The ability of the compounds to mobilise ^59Fe from SK-N-MC neuroepithelioma cells was assessed after a 3 h labelling period with ^59Fe-Tf (0.75 μM) at 37° C. […]
DFO and 311 were used as internal standards.

[3] = system: SK-N-MC neuroepithelioma cells; assay: MTT cellular proliferation assay, SK-N-MC; type: cell-based, human
Procedure: […] […] After this incubation, 0.01 mL of MTT was added to each well and the plates incubated for 2 h at 37° C. The cells were then solubilised by adding 0.1 mL of 10% SDS-50% isobutanol in 0.01 M HCl and the plates then read at 570 nm on a scanning multiwell spectrophotometer (Titertek Multiscan; Beckman Instruments Inc, California). MTT colour formation was directly proportional to the number of viable cells.
The effect of the compounds on the proliferation of SK-N-MC neuroepithelioma cells was examined using the MTT assay (described above).
(§2) Dp2mT served as a negative control.

H69AR lung cancer = assay: MTT cellular proliferation assay, H69AR; type: cell-based; conditions: Homo sapiens, H69AR, 0-50 μM, 72 h, 1 experiment
Procedure: (§3) The final concentration of the compounds was 0.39-50 μM. […] […] After this incubation, 0.01 mL of MTT was added to each well and the plates incubated for 2 h at 37° C. The cells were then solubilised by adding 0.1 mL of 10% SDS-50% isobutanol in 0.01 M HCl and the plates then read at 570 nm on a scanning multiwell spectrophotometer (Titertek Multiscan; Beckman Instruments Inc, California). MTT colour formation was directly proportional to the number of viable cells.
(§4) At the end of the incubation period, cell density was determined by the MTT assay (described above).

SK-Mel-28 melanoma cells = assay: MTT cellular proliferation assay, SK-Mel-28; type: cell-based, human
Procedure: as §3, §2
(§5) Dp2mT served as a negative control as the methyl group at the 2-position hinders Fe-chelation.

DU 145 prostate cancer = assay: MTT cellular proliferation assay, DU 145; type: cell-based; conditions: Homo sapiens, DU-145, 0-50 μM, 72 h, 2 experiments
Procedure: as §3, §4

NCI H2452 mesothelioma = assay: MTT cellular proliferation assay, NCI H2452; type: cell-based; conditions: Homo sapiens, NCI-H2452, 0-50 μM, 72 h, 3 experiments
Procedure: as §3, §4

[4] = system: MCF-7 breast cancer cells; assay: MTT cellular proliferation assay, MCF-7; type: cell-based, human
Procedure: […] […] […] After this incubation, 0.01 mL of MTT was added to each well and the plates incubated for 2 h at 37° C. The cells were then solubilised by adding 0.1 mL of 10% SDS-50% isobutanol in 0.01 M HCl and the plates then read at 570 nm on a scanning multiwell spectrophotometer (Titertek Multiscan; Beckman Instruments Inc, California). MTT colour formation was directly proportional to the number of viable cells.
as §2, §5

IMR-32 Neuroblastoma = assay: MTT cellular proliferation assay, IMR-32; type: cell-based; conditions: Homo sapiens, IMR-32, 0-50 μM, 72 h, 1 experiment
Procedure: as §3, §4

HEP G2 Hepatoma = assay: MTT cellular proliferation assay, HEP G2; type: cell-based; conditions: Homo sapiens, HepG2, 0-50 μM, 72 h, 1 experiment
Procedure: as §3, §4

[5] = system: SK-N-MC neuroepithelioma cells; assay: 3H-leucine incorporation by SK-N-MC cells; type: cell-based, human; conditions: 20 h incubation then 2 h label; Mean ± SD, 4 experiments
Procedure: as §1

[6] = system: SK-N-MC neuroepithelioma cells; assay: 3H-uridine incorporation by SK-N-MC cells; type: cell-based, human; conditions: 20 h incubation then 2 h label; Mean ± SD, 3 experiments
Procedure: as §1

GADD45 and WAF1 mRNA = assay: Northern blot of WAF1 and GADD45 mRNA expression in SK-N-MC cells; type: cell-based, human; conditions: DFO 100 μM, other chelators 25 μM, 20 h at 37° C. (FIG. 7)
Procedure: FIG. 7. […] Northern blotting was performed using standard procedures (see Example 6).
Northern blot analysis was performed by isolating total RNA using the Total RNA Isolation Reagent (Advanced Biotechnologies Ltd, Surrey, United Kingdom). The membranes were hybridised with probes specific for human WAF1, GADD45, and β-actin. The WAF1 probe consisted of a 1 kb fragment from pSXV (ATCC; Cat. No. 79928). The GADD45 probe consisted of a 760 bp fragment from human GADD45 cDNA cloned into pHu145B2 (kindly supplied by Dr. Albert Fornace, National Cancer Institute, NIH, Maryland). The β-actin probe consisted of a 1.4 kb fragment from human β-actin cDNA cloned into pBluescript SK− (ATCC; Cat. No. 37997).

[7] = system: SK-N-MC neuroepithelioma cells; assay: 59Fe uptake from 59Fe-transferrin by SK-N-MC neuroepithelioma cells; type: cell-based, human; conditions: 25 μM, 3 h at 37° C. (FIG. 11B)
Procedure: The cells were then placed on ice and washed four times with ice-cold Hank's balanced salt solution (BSS) to remove non-specifically bound ^59Fe-Tf. Cells were then incubated with the general protease, pronase (1 mg/ml), for 30 min at 4° C. to remove membrane-bound ^59Fe and Tf.
PCTH was used as an internal control.

MRC-5 fibroblasts = assay: MTT cellular proliferation assay, MRC-5 fibroblasts; type: cell-based, human
Procedure: as §3
The MRC-5 cell type is a normal human lung fibroblast cell strain that is mortal and senesces after a number of passages in vitro. The SK-N-MC neuroepithelioma cell type is immortal.
as §2

Ndrg1 = Ndrg1 expression in MCF-7 cells (Western blotting); type: cell-based, human; conditions: 25 μM, 24 h, MCF-7 cells (FIG. 16)
Procedure: FIG. 16. […] The expression of Ndrg1 and β-actin protein levels were assessed by Western blotting.
MCF-7 cells were incubated for 24 h with a range of metal ion chelators. […] Dp2mT was used as a negative control, […]

[8] = Homo sapiens, SK-N-MC, 90 h, Table 2, MTT assay, 90 h incubation, Mean ± SD, 4 experiments, read-out: IC50 Values of Chelators
[9] = Table 2, MTT assay, 90 h incubation, Mean ± SD, 4 experiments, read-out: IC50 Values of Chelators
[10] = Table 3, 72 h, MTT, mean ± SD, read-out: IC50 MCF-7 breast cancer
[11] = Table 3, normal cells, 72 h, MTT, read-out: IC50 MRC-5 fibroblasts
[12] = Table 3, 0-25 μM, 72 h, MTT, mean ± SD, read-out: IC50 SK-N-MC neuroepithelioma
[13] = Homo sapiens, MCF7, values given in Example 8 text, read-out: IC50, anti-proliferative activity in MCF-7 cells

O=C(NN=Cc1ccc2ccccc2n1)c1ccncc1 [QCIH, 2-quinolinecarboxaldehyde isonicotinoyl hydrazone]
3H-Thymidine Incorporation [1]: 77 ± 9.5 % Control
59Fe mobilisation from prelabelled cells ([2]; DFO 100 μM, other chelators 50 μM, 3 h (FIG. 3)): comparable cellular ^59Fe mobilisation to PCIH
IC50 [3, 8]: 49 ± 3 µM

COc1cccc2c1C(=O)c1c(O)c3c(c(O)c1C2=O)C[C@@](O)(C(=O)CO)C[C@@H]3O[C@H]1C[C@H](N)[C@H](O)[C@H](C)O1 [Dox, doxorubicin]
IC50 (H69AR lung cancer): 0.39 µM
IC50 (SK-Mel-28 melanoma cells; Homo sapiens, SK-MEL-28, 72 h, Table 3, mean ± SD): 0.35 ± 0.09 µM
IC50 (DU 145 prostate cancer): 0.09 µM
IC50 (NCI H2452 mesothelioma): 0.17 µM
IC50 ([4]; Homo sapiens, MCF7, 72 h, Table 3, 72 h, MTT, mean ± SD, read-out: IC50 MCF-7 breast cancer): 0.6 ± 0.2 µM
IC50 ([3]; Homo sapiens, SK-N-MC, 72 h, Table 3, 0-25 μM, 72 h, MTT, mean ± SD, read-out: IC50 SK-N-MC neuroepithelioma): 0.02 µM
IC50 (IMR-32 Neuroblastoma): 0.01 µM
IC50 (HEP G2 Hepatoma): 2.61 µM

O=C(NN=C(c1ccccn1)c1ccccn1)c1ccccc1 [PCBH, 2-pyridylketone benzoyl hydrazone]
3H-Thymidine Incorporation [1]: 72 ± 16 % Control
3H-Leucine Incorporation [5]: 30 ± 13 % Control
3H-Uridine Incorporation [6]: 31 ± 9 % Control
GADD45 and WAF1 mRNA expression (GADD45 and WAF1 mRNA): little effect
IC50 [3, 9]: 46 ± 7 µM

CN(N=C(c1ccccn1)c1ccccn1)C(N)=S [Dp2mT, di-2-pyridylketone 2-methyl-3-thiosemicarbazone]
prevention of 59Fe uptake from 59Fe-Tf [7]: little effect
IC50 (SK-Mel-28 melanoma cells; Table 3, 72 h, mean ± SD): > 25 µM
IC50 [4, 10]: > 25 µM
IC50 (MRC-5 fibroblasts; [11]): > 25 µM
up-regulation of Ndrg1 (Ndrg1): no effect
IC50 [3, 12]: > 25 µM

2-pyridylketone 2-thiophenecarboxaldehyde hydrazone [PCTH]
3H-Thymidine Incorporation [1]: 64 ± 14 % Control
3H-Leucine Incorporation [5]: 21 ± 6 % Control
3H-Uridine Incorporation [6]: 43 ± 2 % Control
cellular 59Fe released ([2]; chelator 1 μM, 3 h reincubation at 37° C. (FIG. 5A)): 10%
IC50 [3, 9]: 48 ± 4 µM

Cc1c(O)c(=O)ccn1C [L1, deferiprone]
IC50 [4, 13]: 180 µM
up-regulation of Ndrg1 (Ndrg1): no effect

c1ccc(-c2ccccn2)nc1 [dipyridyl]
IC50 ([4]; Homo sapiens, MCF7, read-out: IC50, anti-proliferative activity in MCF-7 cells): > 250 µM
up-regulation of Ndrg1 (Ndrg1): no effect

CC(C)(S)[C@@H](N)C(=O)O [penicillamine]
up-regulation of Ndrg1 (Ndrg1): no effect

O=C(NN=Cc1c(O)ccc2ccccc12)c1cccnc1 [311m, 2-hydroxy-1-naphthylaldehyde nicotinoyl hydrazone]
IC50 (SK-Mel-28 melanoma cells; Table 3, 72 h, mean ± SD): 1.4 ± 0.4 µM
IC50 [4, 10]: 0.9 ± 0.4 µM
IC50 (MRC-5 fibroblasts; [11]): > 25 µM
IC50 [3, 12]: 0.8 ± 0.2 µM

O=C(O)CN(CCN(CC(=O)O)CC(=O)O)CC(=O)O [EDTA, ethylenediamine tetraacetic acid]
IC50 [4, 13]: > 250 µM
up-regulation of Ndrg1 (Ndrg1): no effect

O=C(NN=Cc1ccc2ccccc2n1)c1ccccc1 [QCBH, 2-quinolinecarboxaldehyde benzoyl hydrazone]
3H-Thymidine Incorporation [1]: 64 ± 5 % Control
IC50 [3, 8]: 50 ± 1 µM

O=C(NN=C(c1ccccn1)c1ccccn1)c1cccc(Br)c1 [PCBBH, 2-pyridylketone 3-bromobenzoyl hydrazone]
GADD45 and WAF1 mRNA expression (GADD45 and WAF1 mRNA): up-regulation
IC50 [3, 9]: 40 ± 12 µM

Nc1ccc(C(=O)NN=Cc2ccc3ccccc3n2)cc1 [QCAH, 2-quinolinecarboxaldehyde 4-aminobenzoyl hydrazone]
3H-Thymidine Incorporation [1]: 43 ± 2 % Control
IC50 [3, 8]: > 50 µM

O=C(NN=Cc1ccc2ccccc2n1)c1ccc(O)cc1 [QCHH, 2-quinolinecarboxaldehyde 4-hydroxybenzoyl hydrazone]
3H-Thymidine Incorporation [1]: 41 ± 2 % Control
IC50 [3, 8]: > 50 µM

O=C(NN=C(c1ccccn1)c1ccccn1)c1cccc(Br)c1 [PKBBH, di-2-pyridylketone 3-bromobenzoyl hydrazone]
3H-Thymidine Incorporation [1]: 0.02 % Control and 0.02 ± 0.01 % Control
3H-Leucine Incorporation [5]: 8 ± 1 % Control
IC50 (MRC-5 fibroblasts; Homo sapiens, MRC5, Example 4c, FIG. 6, read-out: IC50 values in fibroblasts): 8 µM
3H-Uridine Incorporation [6]: 3 ± 1 % Control
GADD45 and WAF1 mRNA expression (GADD45 and WAF1 mRNA): pronounced effect
IC50 [3, 9]: 1 ± 1 µM

O=C(NN=Cc1ccc2ccccc2n1)c1cccc(Br)c1 [QCBBH, 2-quinolinecarboxaldehyde 3-bromobenzoyl hydrazone]
3H-Thymidine Incorporation [1]: 81 ± 10 % Control
IC50 [3, 8]: 49 ± 3 µM

2-quinolinecarboxaldehyde 2-thiophenecarboxaldehyde hydrazone [QCTH]
3H-Thymidine Incorporation [1]: 83 ± 6 % Control
IC50 [3, 9]: > 50 µM
